Patent publication US12544370B2, “Methods for cancer therapy” (ASCENTAGE PHARMA (SUZHOU) CO., LTD., priority 2018, dated 2026)

How the values were obtained:
[1] = target: Ba/F3 containing BCR-ABL mutation Y253H/E255V (Homo sapiens, UniProt P00519, Y253H/E255V, cells depend on it); conditions: read-out: Antiproliferation Effect (IC50)
Excerpt: (§1) Ba/F3 cells stably expressing BCR-ABL (F359V, H396R, E255K, Y253H, T315I, F317L) mutations were provided by the Institute of Life and Health, Guangzhou Academy of Sciences.
(§2) 1. The mutated Ba/F3 cell line stably expressing BCR-ABL (E255V, T315M, Y253H/E255V, Y253H/T315I, Y253H/F359V, T315I/F317L, F317L/F359V) mutation was constructed by electro-transformation method, the Ba/F3 cell line stably expressing the BCR-ABL (E255V/T315I, T315I/F359V) mutation was constructed by lentivirus infection method.
(§3) 2. Effect of drugs on the proliferation of BaF3 cells stably transfected with BCR-ABL single mutation or complex mutation by WST assay
(§4) The dilution was used as a cell blank control (excluding the sample to be tested, which was added to the cells). In addition, a negative control (excluding the sample to be tested and cells) was prepared. In addition to the negative control wells, 100 μl of complete medium cell suspension was added to each well. The dilution was added to the negative control wells at 100 μl/well. 3 repeated wells were set in the experiment. […] 20 μl of CCK-8 detection solution (Shanghai Life iLab Biotech Co., LTD, Cat #D3100L4057) was added to each well, incubating at 37° C. for 2 hours in a CO2 incubator. The OD value was measured at A450 nm by a microplate reader.
(§5) The percentage of cell viability was calculated using the following formula: (O.D. test well-O.D. negative control well)/(O.D. cell control well-O.D. negative control well)×100
(§6) The IC50 was calculated using a non-linear regression data analysis method of Graphpad Prism 6.0 software ([…]).

[2] = target: Ba/F3 containing BCR-ABL mutation T315M (Homo sapiens, UniProt P00519, T315M, cells depend on it); conditions: read-out: Antiproliferation Effect (IC50)
Excerpt: as §1, §2, §3, §4, §5, §6

[3] = system: Ba/F3 cells having BCR-ABL^WT
[4] = system: CRKL phosphorylation in PBMCs, a biomarker of BCR-ABL inhibition; experiment: Phase 1 trial, CRKL phosphorylation in PBMCs (Example 2); assay type: in vivo, human; conditions: 53 evaluable patients
Excerpt: The eligible patients received treatments until disease progression or intolerable toxicities. The primary efficacy endpoint in the CML AP and CP patients, was complete hematological response (CHR) and major cytogenetic response (MCyR) respectively, MCyR includes partial cytogenetic response (PCyR) and complete cytogenetic response (CCyR). Blood samples were collected at various time points on Day 1-2 and Day 27-28 during cycle 1 for PK analyses.

[5] = system: patients with chronic phase (CP/CML-CP) or accelerated phase (AP/CML-AP) CML resistant to or intolerant of ≥2 prior TKIs or with BCR-ABL T315I; experiment: Phase 1 trial in resistant CML, further safety (Example 2)
Excerpt: The eligible patients received continuous treatment until disease progression or unacceptable toxicity, consent withdrawal, or death. The primary efficacy endpoints were major cytogenetic response (MCyR) for CP and complete hematological response (CHR) for AP. MCyR includes partial cytogenetic response (PCyR) and complete cytogenetic response (CCyR). Blood samples were collected at various time points on Day 1-2 and Day 27-28 during cycle 1 for PK analyses.

[6] = Example 2, Table 3, treatment related AE, treated population 101

For `Cc1ccc(C(=O)Nc2ccc(CN3CCN(C)CC3)c(C(F)(F)F)c2)cc1C#Cc1cnc2[nH]ncc2c1` [compound of formula (I-A), 3-(2-(1H-pyrazolo[3,4-b]pyridin-5-yl)ethynyl)-4-methyl-N-(4-((4-methylpiperazin-1-yl)methyl)-3-(trifluoromethyl)phenyl)-benzamide], the GI50 [1] was 122 nM, the GI50 [2] was 217 ± 131 nM and the “survival rate of isogenic leukemia mice” value [3] was “significantly improved the survival rate”. The “reduction of CRKL phosphorylation in PBMCs” value [4] was “dose and time dependent”, the “death / CTCAE grade 5 events on study” value ([5]; Example 2) was “No death and no CTCAE grade 5 events” and the “ALT elevation, Any Grade” value [5, 6] was 34 (33.7%) n(%). The “ALT elevation, Grade 3, 4” value [5, 6] was 2 (2.0%) n(%), the “ALT elevation, SAE” value [5, 6] was 0 n(%) and the “AST elevation, Any Grade” value [5, 6] was 37 (36.6%) n(%). The “AST elevation, Grade 3, 4” value [5, 6] was 3 (3.0%) n(%), the “AST elevation, SAE” value [5, 6] was 0 n(%) and the “Anemia, Any Grade” value [5, 6] was 25 (24.8%) n(%). The “Anemia, Grade 3, 4” value [5, 6] was 12 (11.9%) n(%), the “Anemia, SAE” value [5, 6] was 2 (2.0%) n(%) and the “Bilirubin elevation, Any Grade” value [5, 6] was 34 (33.7%) n(%). The “Bilirubin elevation, Grade 3, 4” value [5, 6] was 1 (1.0%) n(%), the “Bilirubin elevation, SAE” value [5, 6] was 0 n(%) and the “CPK elevation, Any Grade” value [5, 6] was 20 (19.8%) n(%). For the same compound, the “CPK elevation, Grade 3, 4” value [5, 6] was 2 (2.0%) n(%), the “CPK elevation, SAE” value [5, 6] was 0 n(%) and the “GGT elevation, Any Grade” value [5, 6] was 24 (23.8%) n(%). The “GGT elevation, Grade 3, 4” value [5, 6] was 0 n(%), the “GGT elevation, SAE” value [5, 6] was 0 n(%) and the “Hyperglycaemia, Grade 3, 4” value [5, 6] was 0 n(%). For the same compound, the “Hyperglycaemia, SAE” value [5, 6] was 0 n(%), the “Hypertriglyceridaemia, Any grade” value [5, 6] was 55 (54.5%) n(%) and the “Hypertriglyceridaemia, Grade 3, 4” value [5, 6] was 8 (7.9%) n(%). For the same compound, the “Hypertriglyceridaemia, SAE” value [5, 6] was 0 n(%), the “Hypocalcaemia, Any grade” value [5, 6] was 34 (33.7%) n(%) and the “Hypocalcaemia, Grade 3, 4” value [5, 6] was 0 n(%). For the same compound, the “Hypocalcaemia, SAE” value [5, 6] was 0 n(%), the “Hypokalaemia, Any Grade” value [5, 6] was 20 (19.8%) n(%) and the “Hypokalaemia, Grade 3, 4” value [5, 6] was 0 n(%). For the same compound, the “Hypokalaemia, SAE” value [5, 6] was 0 n(%), the “Hyponatraemia, Any Grade” value [5, 6] was 23 (22.8%) n(%) and the “Hyponatraemia, Grade 3, 4” value [5, 6] was 0 n(%). For the same compound, the “Hyponatraemia, SAE” value [5, 6] was 0 n(%), the “Myalgia, Grade 3, 4” value [5, 6] was 0 n(%) and the “Myalgia, SAE” value [5, 6] was 0 n(%). For the same compound, the “Proteinuria, Any grade” value [5, 6] was 35 (34.7%) n(%), the “Proteinuria, Grade 3, 4” value [5, 6] was 5 (5.0%) n(%) and the “Proteinuria, SAE” value [5, 6] was 0 n(%). For the same compound, the “Pyrexia, Any Grade” value [5, 6] was 18 (17.8%) n(%), the “Pyrexia, Grade 3, 4” value [5, 6] was 7 (6.9%) n(%) and the “Pyrexia, SAE” value [5, 6] was 1 (1.0%) n(%). The “Rash, Any Grade” value [5, 6] was 15 (14.9%) n(%), the “Rash, Grade 3, 4” value [5, 6] was 2 (2.0%) n(%) and the “Rash, SAE” value [5, 6] was 0 n(%). The “Skin mass, Any Grade” value [5, 6] was 10 (9.9%) n(%), the “Skin mass, Grade 3, 4” value [5, 6] was 1 (1.0%) n(%) and the “Skin mass, SAE” value [5, 6] was 0 n(%). The “Skin pigmentation, Any Grade” value [5, 6] was 79 (78.2%) n(%), the “Skin pigmentation, Grade 3, 4” value [5, 6] was 0 n(%) and the “Skin pigmentation, SAE” value [5, 6] was 0 n(%). For the same compound, the “Thrombocytopenia, Any grade” value [5, 6] was 76 (75.2%) n(%), the “Thrombocytopenia, Grade 3, 4” value [5, 6] was 50 (49.5%) n(%) and the “Thrombocytopenia, SAE” value [5, 6] was 6 (5.9%) n(%). The “leukopenia, Grade 3, 4” value [5, 6] was 20 (19.8%) n(%), the “leukopenia, SAE” value [5, 6] was 0 n(%) and the “patients who experienced DLT” value ([5]; Example 2, 60 mg cohort) was “Two out of 3”. The “grade ¾ TRAE thrombocytopenia” value ([5]; Example 2, 101 patients) was 49.5%, the tolerability ([5]; Example 2, 101 patients) was “well-tolerated in all dose cohorts with an exception of 60 mg cohort” and the MTD ([5]; Example 2, QOD) was 50 mg. The “patients who experienced ≥1 treatment related adverse events (TRAEs)” value ([5]; Example 2, all patients) was 101 (100%) n (%).
